Assay in all cases: biochemical
The target in test [1] is T1, panel of 374 wild-type kinases (Homo sapiens, UniProt O95382).
T1 construct: purchased Reaction Biology Corporation
T1 sequence (O95382 1-1288): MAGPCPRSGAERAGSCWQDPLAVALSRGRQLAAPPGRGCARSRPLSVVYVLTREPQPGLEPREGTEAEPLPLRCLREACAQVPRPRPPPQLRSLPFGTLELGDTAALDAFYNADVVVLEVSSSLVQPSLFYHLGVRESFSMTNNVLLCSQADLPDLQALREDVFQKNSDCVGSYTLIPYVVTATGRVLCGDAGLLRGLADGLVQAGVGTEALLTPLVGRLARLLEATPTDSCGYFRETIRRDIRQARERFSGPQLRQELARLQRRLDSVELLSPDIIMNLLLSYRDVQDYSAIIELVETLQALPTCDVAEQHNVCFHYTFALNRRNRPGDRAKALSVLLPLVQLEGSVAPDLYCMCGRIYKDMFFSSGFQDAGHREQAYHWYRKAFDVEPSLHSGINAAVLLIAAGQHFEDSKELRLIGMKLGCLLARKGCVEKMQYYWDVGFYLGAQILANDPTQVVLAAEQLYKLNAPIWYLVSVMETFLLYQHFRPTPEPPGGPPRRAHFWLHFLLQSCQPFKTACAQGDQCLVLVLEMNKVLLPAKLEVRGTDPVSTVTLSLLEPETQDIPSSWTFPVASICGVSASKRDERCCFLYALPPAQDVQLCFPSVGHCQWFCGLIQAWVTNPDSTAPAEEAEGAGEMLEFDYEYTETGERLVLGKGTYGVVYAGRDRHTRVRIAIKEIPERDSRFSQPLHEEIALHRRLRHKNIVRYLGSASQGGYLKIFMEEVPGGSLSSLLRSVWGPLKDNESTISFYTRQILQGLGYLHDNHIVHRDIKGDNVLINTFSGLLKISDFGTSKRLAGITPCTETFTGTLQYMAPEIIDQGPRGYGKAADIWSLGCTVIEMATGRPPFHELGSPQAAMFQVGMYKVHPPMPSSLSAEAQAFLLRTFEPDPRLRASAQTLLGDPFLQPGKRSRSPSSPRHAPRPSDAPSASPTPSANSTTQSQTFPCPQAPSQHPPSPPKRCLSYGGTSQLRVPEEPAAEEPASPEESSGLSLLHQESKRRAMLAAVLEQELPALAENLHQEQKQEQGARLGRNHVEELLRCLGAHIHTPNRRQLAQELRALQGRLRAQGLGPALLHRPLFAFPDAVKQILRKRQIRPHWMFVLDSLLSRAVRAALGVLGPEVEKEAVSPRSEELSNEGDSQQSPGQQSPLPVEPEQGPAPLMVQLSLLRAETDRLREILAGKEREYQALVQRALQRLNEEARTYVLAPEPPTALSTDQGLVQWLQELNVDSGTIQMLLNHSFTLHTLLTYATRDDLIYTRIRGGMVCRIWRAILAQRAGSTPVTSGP
To be noted: read-out: % Enzyme Activity (relative to DMSO controls), MEKK6.

Test [2] addresses T2, panel of 374 wild-type kinases (Homo sapiens, UniProt Q13627).
T2 construct: purchased Reaction Biology Corporation
The settings on record: read-out: % Enzyme Activity (relative to DMSO controls), DYRK1/DYRK1A.

Test [3] deals with T3, panel of 374 wild-type kinases (Homo sapiens, UniProt Q9UL54).
T3 construct: purchased Reaction Biology Corporation
T3 sequence (Q9UL54 1-1235): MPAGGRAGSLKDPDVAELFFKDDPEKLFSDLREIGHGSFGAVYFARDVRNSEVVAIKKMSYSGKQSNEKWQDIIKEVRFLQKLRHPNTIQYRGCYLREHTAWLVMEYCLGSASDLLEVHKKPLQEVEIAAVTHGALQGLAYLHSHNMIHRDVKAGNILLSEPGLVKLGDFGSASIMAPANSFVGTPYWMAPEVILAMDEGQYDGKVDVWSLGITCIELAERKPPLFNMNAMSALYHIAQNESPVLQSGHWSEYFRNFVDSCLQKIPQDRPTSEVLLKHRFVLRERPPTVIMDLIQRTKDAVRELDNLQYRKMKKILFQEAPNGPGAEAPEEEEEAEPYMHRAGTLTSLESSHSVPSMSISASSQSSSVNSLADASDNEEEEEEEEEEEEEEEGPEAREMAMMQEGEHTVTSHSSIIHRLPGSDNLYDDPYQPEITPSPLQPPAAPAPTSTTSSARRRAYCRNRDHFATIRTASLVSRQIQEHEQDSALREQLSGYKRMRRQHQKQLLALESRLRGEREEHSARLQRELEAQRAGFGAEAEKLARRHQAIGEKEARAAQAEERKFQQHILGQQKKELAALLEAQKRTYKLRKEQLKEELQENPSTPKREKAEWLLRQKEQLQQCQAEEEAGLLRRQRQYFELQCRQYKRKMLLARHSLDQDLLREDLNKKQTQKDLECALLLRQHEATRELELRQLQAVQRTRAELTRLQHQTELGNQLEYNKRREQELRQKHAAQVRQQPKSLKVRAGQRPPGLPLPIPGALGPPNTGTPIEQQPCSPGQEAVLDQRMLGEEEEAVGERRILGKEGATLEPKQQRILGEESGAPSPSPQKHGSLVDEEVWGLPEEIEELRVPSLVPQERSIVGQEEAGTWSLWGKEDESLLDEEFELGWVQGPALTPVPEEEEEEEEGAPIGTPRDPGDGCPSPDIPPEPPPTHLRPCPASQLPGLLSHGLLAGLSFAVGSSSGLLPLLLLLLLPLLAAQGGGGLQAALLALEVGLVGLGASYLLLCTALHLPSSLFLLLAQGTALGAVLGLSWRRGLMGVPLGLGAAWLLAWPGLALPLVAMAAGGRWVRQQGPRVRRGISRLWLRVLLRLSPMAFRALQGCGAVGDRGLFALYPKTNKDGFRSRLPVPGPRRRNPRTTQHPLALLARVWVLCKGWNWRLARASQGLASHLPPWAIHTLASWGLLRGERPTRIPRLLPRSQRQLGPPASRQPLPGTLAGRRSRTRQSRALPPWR
The settings on record: read-out: % Enzyme Activity (relative to DMSO controls), kinase TAOK2/TAO1.

The values that follow come from patent US20240246942A1, “KINASE INHIBITORS FOR THE TREATMENT OF NEURODEGENERATIVE DISEASES” (priority 2020, published 2024).

Turning to `O=C(Nc1cnn(-c2csc(C(=O)NC3COC3)c2)c1)Nc1ccccc1Cl` [Compound 17, 4-(4-(3-(2-chlorophenyl)ureido)-1H-pyrazol-1-yl)-N-(oxetan-3-yl)thiophene-2-carboxamide], the figures for the remaining activity at 5 µM in test [1], in test [2] and in test [3] were 98.8%, 86% and 101%, respectively.

Turning to `O=C(Nc1cnn(-c2csc(C(=O)NC3COC3)c2)c1)Nc1c(F)cccc1Cl` [Compound 25, 4-(4-(3-(2-chloro-6-fluorophenyl)ureido)-1H-pyrazol-1-yl)-N-(oxetan-3-yl)thiophene-2-carboxamide], the remaining activity at 5 µM in test [1] was 92.5%; in test [2] it was 75.1%; in test [3], 88.2%.

As for `Cc1sc(C(=O)NC2COC2)cc1-n1cc(NC(=O)Nc2c(F)cccc2Cl)cn1` [Compound 27, 4-(4-(3-(2-chloro-6-fluorophenyl)ureido)-1H-pyrazol-1-yl)-5-methyl-N-(oxetan-3-yl)thiophene-2-carboxamide], the remaining activity at 10 µM worked out at 79.3% in test [1] (10 uM), 95.5% in test [2] (10 uM) and 93.3% in test [3] (10 uM).
